Data taken from ChEMBL document CHEMBL1157539, “Thousands of chemical starting points for antimalarial lead identification” (Nature, 2010).

tested on: Plasmodium falciparum; assay: GSK_TCMDC: Inhibition of Plasmodium falciparum 3D7 in whole erythrocytes, using parasite LDH activity as an index of growth.; format: functional, organism-based; conditions: not given

SMILES | XC50 [nM]
S=C(Nc1ccc2c(c1)OCCO2)NC1CCC(CN2CCC(c3c[nH]c4ccccc34)CC2)CC1 (configuration not stated) | 1000

same assay, conditions: Plasmodium falciparum, 3D7

SMILES | XC50 [nM]
O=C(NCCc1ccccc1F)c1cc(Br)cc(N2CCN(c3ccncc3)CC2)c1 | 756
CC(C)N1CCCN(C(=O)C2CCN(c3ccc(C(=O)N4CCCC4)cn3)CC2)CC1 | 1060
O=C(Nc1ccccc1)Nc1ccc(-n2ccc(C(F)(F)F)n2)cc1 | 632
Cc1cc(NCCc2ccccc2)nc(NC(=N)Nc2ccccc2Cl)n1 | 789
Cc1cc(N(CCO)CCCN2CCCCC2)nc(Nc2ccc(Cl)cc2)n1 | 547
COc1cc2nc(NCCc3ccccc3)nc(NCc3ccc(C#N)cc3)c2cc1OC | 145
c1cc(Cc2ccc(Nc3c4ccccc4nc4ccccc34)cc2)cc(Nc2c3ccccc3nc3ccccc23)c1 | 143
O=C1Nc2cccc3c2C1(CCCCN1CCC(c2c(-c4ccccc4)[nH]c4ccccc24)CC1)CCC3 (configuration not stated) | 1200
COc1ccccc1C(=O)Nc1cccc(N2CCC(NCc3ccc(-n4cccn4)cc3)CC2)c1 | 1190
CCN(CC)/C(=N/C(=N)Nc1ccc(Cl)cc1)NCCCCCCCCN/C(=N\C(=N)Nc1ccc(Cl)cc1)N(CC)CC | 403
O=C(NCc1ccccc1[S+]([O-])c1ccccc1CO)C(F)(F)F (configuration not stated) | 184
CC(C)(C)COC(=O)c1ccc(NC(=O)N[C@@H](Cc2ccc(O)cc2)C(=O)NC2CCN(Cc3ccc(O)cc3)C2)cc1 (some centres not stated) | 668
COc1cccc2cc(C(=O)N[C@@H](CC(C)C)C(=O)N[C@H](C=NNC(=O)OC(C)(C)C)Cc3ccccc3)oc12 | 304
CN(c1ccc(NC(=O)c2ccc(F)cc2)cc1)C1CCN(Cc2cccc(F)c2)C1 (configuration not stated) | 1410
S=C(Nc1ccc2c(c1)OCCO2)NC1CCC(CN2CCC(c3c[nH]c4ccccc34)CC2)CC1 (configuration not stated) | 653
COc1ccc(Nc2cc(C)c3cc(NC(=O)c4ccncc4)ccc3n2)cc1 | 908
CN(C)C(CNC(=O)c1cc(-c2ccncc2)c(-c2ccc(Cl)c(O)c2)o1)c1ccccc1 (configuration not stated) | 843
CCCOc1ccc2ccccc2c1CNCCCCCCNCc1c(OCCC)ccc2ccccc12 | 791
COc1ccc2nccc([C@@H](O)CN3CCC(NCc4ccc5c(c4)NC(=O)C(C)S5)CC3)c2c1 (some centres not stated) | 200
Cc1ccc(NC(=O)Nc2ccc(Cn3ncc(N4CCCNCC4)c(Cl)c3=O)cc2)cc1 | 918
Cc1oc(-c2ccc(Cl)cc2)cc1C(=O)NCCC1CCN(CCCCCNC(=O)/C=C/c2ccc(Cl)c(Cl)c2)CC1 | 446
O=C(/C=C/c1ccc(Cl)c(Cl)c1)NC1CCC(N2CCC(c3c[nH]c4ccccc34)CC2)CC1 (configuration not stated) | 876
CC[C@H]1CN2CC[C@H]1C[C@@H]2[C@@H](O)c1ccnc2ccccc12 | 279
O=S(=O)(NCCN1CCCC1)c1ccc(-c2ccc(CN3Cc4ccccc4C3)cc2)s1 | 930

SMILES | XC50 [nM]
N#Cc1ccc(CN2CCC(NC(=O)c3ccc(-c4nnc(-c5cccc6ccccc56)o4)cc3)CC2)cc1 | 684
SC(=Nc1ccc(Cl)c(Cl)c1)NN=Cc1ccccn1 | 768
CC1(C)NC(N)=NC(=N)N1OCCCc1c(Cl)cccc1Cl | 3.2
CCN(C1CCCCC1)S(=O)(=O)c1ccc(OC)c(N2CCN(C(=O)C(Cl)(Cl)Cl)CC2)c1 | 635
CC(C)NCc1cccc(-c2cccc(NC(=O)c3cccc(C#N)c3)c2)c1 | 823
CN(C)CCCNCc1cn(S(=O)(=O)c2ccccc2Cl)c2ccccc12 | 1070
COc1ccccc1C1CCN(C2CCC(NC(=O)/C=C/c3ccc4c(c3)OC(F)(F)O4)CC2)CC1 (configuration not stated) | 836
CCN(CC)CCNC(=O)c1ccc(NC(=O)c2cn(-c3ccccc3)nc2-c2cccs2)cc1 | 258
O=c1cc(NCCCNC(c2ccccc2)c2ccc(Cl)c(Cl)c2)[nH]c2ccccc12 (configuration not stated) | 1140
CCN(CC)CCOC(=O)c1ccc(NC(=O)c2cc(-c3ccc(C)cc3)nc3ccccc23)cc1 | 779
COc1ccc(NC(=O)[C@H](CC(C)C)Nc2cc(C)nc(Nc3ccccc3)n2)cc1 | 866
Cc1ccccc1C1CCN(C2CCC(NC(=O)/C=C/c3cc(C(F)(F)F)ccc3F)CC2)CC1 (configuration not stated) | 839
O=C(Nc1ccc(C(=O)N2CCN(CCN3CCN(c4cccc(C(F)(F)F)c4)CC3)CC2)cc1)c1cc(Cl)cc(Cl)c1 | 827
Cc1ncc([N+](=O)[O-])n1CCOC(=O)NC(NCC1COc2ccccc2O1)C(Cl)(Cl)Cl (configuration not stated) | 223
CN1CCN(c2ccnc3cc4c(cc23)N(Cc2ccccc2)CC4)CC1 | 1140
CC(Sc1nc(-c2ccccc2)c(-c2ccccc2)o1)C(=O)NC1CC1 (configuration not stated) | 843
CC(C)COc1ccc(Cl)cc1Cc1ccc(-c2nc3ccc(Cl)cc3[nH]2)o1 | 925
CN1CCCC1CNS(=O)(=O)c1ccc(C(=O)NCC2CC2)cc1 (configuration not stated) | 174
Nc1ncc(-c2ccccc2)cc1-c1cccc2ncccc12 | 272
Cc1[nH]c(C)c(-c2ccc(OCc3ccc(OC(F)(F)F)cc3)nc2)c(=O)c1Cl | 70.5
Cc1ccc(Nc2nccc(NCC(O)c3cccc(C(F)(F)F)c3)n2)cc1 (configuration not stated) | 677
Cc1cc(N[C@@H](C)C(=O)Nc2ccccc2)nc(NCCc2ccc(F)cc2)n1 | 1110
O=C(NCCNc1ccnc(Nc2ccc(F)cc2)n1)c1cc2ccccc2s1 | 755
CC(C)NCc1ccc(-c2ccc(CN3CCCC(c4ccccc4)C3)cc2)c(C(=O)NC2Cc3ccccc3C2)c1 (configuration not stated) | 991

SMILES | XC50 [nM]
O=C(Cn1c2ccccc2c(=O)c2ccc(Cl)cc21)Nc1ccc(C(F)(F)F)cc1 | 530
O=C(/C=C/c1ccc(Cl)c(Cl)c1)NCCCCCN1CCCN(C(=O)Nc2ccc(Cl)c(C(F)(F)F)c2)CC1 | 730
COc1ccc(/C=C/C(=O)N2CCc3cc4nccc(N5CCN6CCC[C@H]6C5)c4cc32)cc1 | 642
C=CC[C@H](C[C@H](O)[C@H](Cc1ccccc1)NC(=O)c1nn(-c2ccccc2)nc1C)C(=O)NC1CCCCC1 | 915
CC(CCCCOCCc1ccccc1)NCC(O)c1cc(Cl)c(N)c(Cl)c1 (configuration not stated) | 788
Cc1cc(OCC(=O)Nc2ccc(-c3nc4ccccc4[nH]3)cc2)cc(C)c1Cl | 742
CCCNCc1ccc(-c2ccc(CN(CCOC)C(=O)c3ccco3)cc2)nc1 | 997
CC1(C)NC(N)=NC(=N)N1OCCCNC(=O)c1ccc(C(=O)NCCCON2C(=N)N=C(N)NC2(C)C)cc1 | 21.6
COc1ccc(CNCCc2cccs2)cc1-c1ccc(OC)c(S(=O)(=O)NCCN2CCCC2)c1 | 1410
Cc1cc(NC(=O)c2cccs2)ccc1OC1CCN(Cc2ccccc2)CC1 | 874
CN(CCN1CCC(c2c[nH]c3ccccc23)CC1)C(=O)OCCCCCNC(=O)/C=C/c1ccc(Cl)c(Cl)c1 | 678
CC(C)=C(C(=O)OCc1ccccc1)N1C(=O)[C@@H](NC(c2ccccc2)(c2ccccc2)c2ccccc2)[C@H]1[S+]([O-])CC(=O)OC(C)(C)C (some centres not stated) | 1020
CC(C)(C)Nc1cc(C2CC2)nc(-c2ccccn2)n1 | 679
N#Cc1ccc(N/C(=N\c2ccccc2Br)N(C2CCCCC2)C2CCCCC2)c(O)c1 | 785
CS(=O)(=O)CCNCc1ccc(-c2cc3c(Nc4ccc(OCc5cccc(F)c5)c(Cl)c4)ncnc3s2)[nH]1 | 844
Cc1cccc2nc(-c3cccc(-c4ccc(CNCCc5ccncc5)cc4)c3)[nH]c12 | 119
COc1cc(Cc2cnc(N)nc2N)ccc1OCc1cccc(Oc2ccccc2)c1 | 1330
O=C(NC1CCCCC1)N(Cc1cccc(-c2ccc(CNCCc3ccccc3)cc2)c1)C1CCN(Cc2ccccc2)CC1 | 650
Cc1cc(N[C@@H](CC(C)C)C(=O)NCCOc2ccccc2)nc(NCC2CCCCC2)n1 | 972
CCOc1ccc(C(=O)Nc2cc(Br)c3c(c2)CNCC3)cc1Br | 990
Cc1ccc(NS(=O)(=O)c2cccs2)cc1-c1cccc(C(=O)Nc2ccc(F)cc2)c1 | 653
O=C(CC(=O)Nc1cc(Cl)cc(Cl)c1)Nc1cc(Cl)cc(Cl)c1 | 159
CNS(=O)(=O)c1ccc2c(c1)nc(C1CCN(CC3CCC(NC(=O)/C=C/c4ccc(Cl)c(Cl)c4)CC3)CC1)n2C (configuration not stated) | 670
CC(C)(C)c1ccc(CNC(=O)c2cc(CNC3CCC(N)CC3)ccc2O)cc1 (configuration not stated) | 1030

SMILES | XC50 [nM]
Nc1nc(N)c2c(ccc3nn(C4CCCC4)cc32)n1 | 286
CC(=O)Nc1cccc(C(=O)Nc2cccc(-c3ccc(-c4nc5cccc(C)c5[nH]4)cc3)c2)c1 | 908
[O-][s+]1nc(NCCCN(Cc2cccs2)c2ccccn2)c(NCc2ccccc2)n1 (configuration not stated) | 305
CCOc1ccc2nc(C)cc(N/N=C/c3cccc([N+](=O)[O-])c3)c2c1 | 664
CCOc1cc(CC)ccc1C1CCN(CCCCNC(=O)c2ccc(NC(=O)c3ccc(C#N)cc3)cc2)CC1 | 504
O=C(NCCCN1CCN(c2cccc(Cl)c2)CC1)c1ccc(-c2nc3cc(Cl)c(Cl)cc3[nH]2)c(F)c1 | 826
CCc1cc(-c2onc(C)c2-c2cc3ccccc3o2)c(O)cc1OC | 969
COc1ccccc1CCNc1nc(C)cc(N[C@@H](Cc2ccccc2)C(=O)NCc2cccs2)n1 | 634
COc1ccc(NC(=O)C2c3ccccc3C(=O)N(C3CCCC3)C2c2cccs2)c(OC)c1 (configuration not stated) | 1480
CCC(CO)NCC(O)Cn1c2ccc(Br)cc2c2cc(Br)ccc21 (configuration not stated) | 783
COc1ccc(Nc2ncc3c(-c4cccc(NC(=O)Cc5ccc(F)cc5)c4)c[nH]c3n2)cc1OC | 594
CCCC(=O)NC(NC(=S)Nc1ccc([N+](=O)[O-])cc1)C(Cl)(Cl)Cl (configuration not stated) | 1030
COc1ccc2nc3cc(Cl)ccc3c(N)c2c1 | 165
CCCC(CNCc1cccc(SC(F)(F)F)c1)CNc1cc(=O)c2ccccc2[nH]1 (configuration not stated) | 715
O=c1c(Br)ccccc1Br | 795
Cc1nnsc1C(=O)Nc1ccc(-c2ccc(-c3nc4cccc(C)c4[nH]3)s2)cc1 | 594
Fc1ccc2[nH]c(-c3cccc(-c4ccc(CN5CCCCC5)cc4)c3)nc2c1 | 163
O=C(Nc1ccc(NC2=NCCN2)cc1)c1ccc(C(=O)Nc2ccc(NC3=NCCN3)cc2)cc1 | 649
CCCCCc1cc(O)c2c(c1)OC(C)(C)C=C2C1=CCN(Cc2ccsc2)CC1 | 964
COc1ccc2nccc(NC(=O)CNCc3ccc(-c4ccccc4)cc3)c2c1 | 769
N#Cc1ccc(C(=O)NC2CCN(CCCCCNC(=O)/C=C/c3ccc(Cl)c(Cl)c3)CC2)cc1 | 836
COc1cc(NC(=O)c2cc([N+](=O)[O-])ccc2NC(=O)CNC2CCCCC2C)cc(OC)c1 (configuration not stated) | 1730
CC(C)(C)c1ccccc1OCCCON1C(=N)N=C(N)NC1(C)C | 3.2
CC(=O)c1ccc(NC(=O)Nc2ccc(N(C)c3ccnc(NC4CC4)n3)cc2)cc1 | 805
